# Assay results taken from patent publication US10004701B2, “Methods and compositions for treating infection” (UNIVERSITY OF ROCHESTER, priority 2012, dated 2018).
# Structures can show the parent of a compound that is named as a salt. Where two headings read alike, the source gives them in different places.
# What was measured:
# Assay in all cases: AK assay 384-well format, Prestwick library screening
# E. faecium = assay type: cell-based, Enterococcus faecium; conditions: 50 μM final drug concentration; for fold induction at 50 µM: Enterococcus faecium, 3 h; for AK-based Prestwick Library Screening Results, E. faecium (increase in extracellular AK activity): 384-well format
# [1] = test system: S. aureus strain USA300-0114; assay type: cell-based, Staphylococcus aureus; conditions: 50 μM final drug concentration; for fold induction at 50 µM: Staphylococcus aureus, USA300, 3 h; for AK-based Prestwick Library Screening Results, S. aureus (increase in extracellular AK activity): 384-well format
# K. pneumoniae = assay type: cell-based, Klebsiella pneumoniae; conditions: 50 μM final drug concentration; for fold induction at 50 µM: Klebsiella pneumoniae, 3 h; for AK-based Prestwick Library Screening Results, K. pneumoniae (increase in extracellular AK activity): 384-well format
# [2] = test system: A. baumannii strain 98-37-09; assay type: cell-based, Acinetobacter baumannii; conditions: 50 μM final drug concentration; for fold induction at 50 µM: Acinetobacter baumannii, 983709, 3 h; for AK-based Prestwick Library Screening Results, A. baumannii (increase in extracellular AK activity): 384-well format
# P. aeruginosa = assay type: cell-based, Pseudomonas aeruginosa; conditions: 50 μM final drug concentration; for fold induction at 50 µM: Pseudomonas aeruginosa, 3 h; for AK-based Prestwick Library Screening Results, P. aeruginosa (increase in extracellular AK activity): 384-well format
# E. cloacae = assay type: cell-based, Enterobacter cloacae; conditions: 50 μM final drug concentration; for fold induction at 50 µM: Enterobacter cloacae, 3 h; for AK-based Prestwick Library Screening Results, E. cloacae (increase in extracellular AK activity): 384-well format
# E. coli = assay type: cell-based, Escherichia coli; conditions: 50 μM final drug concentration; for fold induction at 50 µM: Escherichia coli, 3 h; for AK-based Prestwick Library Screening Results, E. coli (increase in extracellular AK activity): 384-well format
# [3] = planktonic, cutoff for positive-scoring molecules 3-fold increase, read-out: AK-based Prestwick Library Screening Results, E. faecium (fold increase in extracellular AK activity)
# [4] = planktonic, cutoff for positive-scoring molecules 3-fold increase, read-out: AK-based Prestwick Library Screening Results, S. aureus (fold increase in extracellular AK activity)
# [5] = planktonic, cutoff for positive-scoring molecules 3-fold increase, read-out: AK-based Prestwick Library Screening Results, K. pneumoniae (fold increase in extracellular AK activity)
# [6] = planktonic, cutoff for positive-scoring molecules 3-fold increase, read-out: AK-based Prestwick Library Screening Results, A. baumannii (fold increase in extracellular AK activity)
# [7] = planktonic, cutoff for positive-scoring molecules 3-fold increase, read-out: AK-based Prestwick Library Screening Results, P. aeruginosa (fold increase in extracellular AK activity)
# [8] = planktonic, cutoff for positive-scoring molecules 3-fold increase, read-out: AK-based Prestwick Library Screening Results, E. cloacae (fold increase in extracellular AK activity)
# [9] = planktonic, cutoff for positive-scoring molecules 3-fold increase, read-out: AK-based Prestwick Library Screening Results, E. coli (fold increase in extracellular AK activity)
# [10] = planktonic, […], read-out: AK-based Prestwick Library Screening Results, E. faecium (fold increase in extracellular AK activity)
# [11] = planktonic, […], read-out: AK-based Prestwick Library Screening Results, S. aureus (fold increase in extracellular AK activity)
# [12] = planktonic, […], read-out: AK-based Prestwick Library Screening Results, K. pneumoniae (fold increase in extracellular AK activity)
# [13] = planktonic, […], read-out: AK-based Prestwick Library Screening Results, A. baumannii (fold increase in extracellular AK activity)
# [14] = planktonic, […], read-out: AK-based Prestwick Library Screening Results, P. aeruginosa (fold increase in extracellular AK activity)
# [15] = planktonic, […], read-out: AK-based Prestwick Library Screening Results, E. cloacae (fold increase in extracellular AK activity)
# [16] = planktonic, […], read-out: AK-based Prestwick Library Screening Results, E. coli (fold increase in extracellular AK activity)
# [17] = cutoff for positive-scoring molecules 3-fold increase
smiles,measurement,setting,value
CC[C@@]1([C@@H]2O[C@@H]([C@H]3O[C@@](O)(CO)[C@H](C)C[C@@H]3C)C[C@@H]2C)CC[C@H]([C@]2(C)CC[C@]3(C[C@H](O)[C@@H](C)[C@@H]([C@@H](C)[C@@H](OC)[C@H](C)C(=O)O)O3)O2)O1 [Monensin sodium salt],fold induction at 50 µM,E. faecium; [3],1.1
same,fold induction at 50 µM,[1]; [4],0.7
same,fold induction at 50 µM,K. pneumoniae; [5],0.6
same,fold induction at 50 µM,[2]; [6],0.7
same,fold induction at 50 µM,P. aeruginosa; [7],0.9
same,fold induction at 50 µM,E. cloacae; [8],1.1
same,fold induction at 50 µM,E. coli; [9],0.9
Oc1ccc(OCc2ccccc2)cc1 [Monobenzone],fold induction at 50 µM,E. faecium; [3],0.6
same,fold induction at 50 µM,[1]; [4],0.6
same,fold induction at 50 µM,K. pneumoniae; [5],0.5
same,fold induction at 50 µM,[2]; [6],0.5
same,fold induction at 50 µM,P. aeruginosa; [7],0.7
same,fold induction at 50 µM,E. cloacae; [8],1.4
same,fold induction at 50 µM,E. coli; [9],0.7
C[C@H]1C(=O)O[C@@H]2CCN3CC=C(COC(=O)[C@](C)(O)[C@]1(C)O)[C@H]23 [Monocrotaline],fold induction at 50 µM,E. faecium; [10],1.1
same,fold induction at 50 µM,[1]; [11],1
same,fold induction at 50 µM,K. pneumoniae; [12],1
same,fold induction at 50 µM,[2]; [13],1.2
same,fold induction at 50 µM,P. aeruginosa; [14],1.2
same,fold induction at 50 µM,E. cloacae; [15],1.3
same,fold induction at 50 µM,E. coli; [16],1.3
Cc1ccsc1/C=C/C1=NCCCN1C [Morantel tartrate],fold induction at 50 µM,"E. faecium; planktonic E. faecium, 384-well, […], read-out: AK-based Prestwick Library Screening Results: E. faecium (increase in extracellular AK activity)",0.8
same,fold induction at 50 µM,"[1]; planktonic S. aureus, 384-well, […], read-out: AK-based Prestwick Library Screening Results: S. aureus (increase in extracellular AK activity)",1.2
same,fold induction at 50 µM,"K. pneumoniae; planktonic K. pneumoniae, 384-well, […], read-out: AK-based Prestwick Library Screening Results: K. pneumoniae (increase in extracellular AK activity)",0.9
same,fold induction at 50 µM,"[2]; planktonic A. baumannii, 384-well, […], read-out: AK-based Prestwick Library Screening Results: A. baumannii (increase in extracellular AK activity)",1.1
same,fold induction at 50 µM,"P. aeruginosa; planktonic P. aeruginosa, 384-well, […], read-out: AK-based Prestwick Library Screening Results: P. aeruginosa (increase in extracellular AK activity)",1.2
same,fold induction at 50 µM,"E. cloacae; planktonic E. cloacae, 384-well, […], read-out: AK-based Prestwick Library Screening Results: E. cloacae (increase in extracellular AK activity)",1.3
same,fold induction at 50 µM,"E. coli; planktonic E. coli, 384-well, […], read-out: AK-based Prestwick Library Screening Results: E. coli (increase in extracellular AK activity)",1.4
CCOC(=O)Nc1ccc2c(c1)N(C(=O)CCN1CCOCC1)c1ccccc1S2 [Moricizine hydrochloride],fold induction at 50 µM,"E. faecium; cutoff for positive-scoring molecules 3-fold increase, read-out: AK-based Prestwick Library Screening Results, E. faecium (fold increase in extracellular AK activity)",1
same,fold induction at 50 µM,"[1]; cutoff for positive-scoring molecules 3-fold increase, read-out: AK-based Prestwick Library Screening Results, S. aureus (fold increase in extracellular AK activity)",0.6
same,fold induction at 50 µM,"K. pneumoniae; cutoff for positive-scoring molecules 3-fold increase, read-out: AK-based Prestwick Library Screening Results, K. pneumoniae (fold increase in extracellular AK activity)",0.6
same,fold induction at 50 µM,"[2]; cutoff for positive-scoring molecules 3-fold increase, read-out: AK-based Prestwick Library Screening Results, A. baumannii (fold increase in extracellular AK activity)",0.6
same,fold induction at 50 µM,"P. aeruginosa; cutoff for positive-scoring molecules 3-fold increase, read-out: AK-based Prestwick Library Screening Results, P. aeruginosa (fold increase in extracellular AK activity)",0.6
same,fold induction at 50 µM,"E. cloacae; cutoff for positive-scoring molecules 3-fold increase, read-out: AK-based Prestwick Library Screening Results, E. cloacae (fold increase in extracellular AK activity)",0.7
same,fold induction at 50 µM,"E. coli; cutoff for positive-scoring molecules 3-fold increase, read-out: AK-based Prestwick Library Screening Results, E. coli (fold increase in extracellular AK activity)",0.6
Cl.N=C(N=C(N)N)N1CCOCC1 [Moroxidine hydrochloride],"AK-based Prestwick Library Screening Results, E. faecium (increase in extracellular AK activity)",E. faecium; [17],0.8
same,"AK-based Prestwick Library Screening Results, S. aureus (increase in extracellular AK activity)",[1]; [17],0.4
same,"AK-based Prestwick Library Screening Results, K. pneumoniae (increase in extracellular AK activity)",K. pneumoniae; [17],0.4
same,"AK-based Prestwick Library Screening Results, A. baumannii (increase in extracellular AK activity)",[2]; [17],0.4
same,"AK-based Prestwick Library Screening Results, P. aeruginosa (increase in extracellular AK activity)",P. aeruginosa; [17],0.3
same,"AK-based Prestwick Library Screening Results, E. cloacae (increase in extracellular AK activity)",E. cloacae; [17],0.3
same,"AK-based Prestwick Library Screening Results, E. coli (increase in extracellular AK activity)",E. coli; [17],0.5
CO[C@@]1(NC(=O)C(C(=O)O)c2ccc(O)cc2)C(=O)N2C(C(=O)O)=C(CSc3nnnn3C)CO[C@@H]21 (some centres unmarked) [Moxalactam disodium salt],fold induction at 50 µM,E. faecium; [3],1.3
same,fold induction at 50 µM,[1]; [4],4.4
same,fold induction at 50 µM,K. pneumoniae; [5],3.9
same,fold induction at 50 µM,[2]; [6],0.6
same,fold induction at 50 µM,P. aeruginosa; [7],0.6
same,fold induction at 50 µM,E. cloacae; [8],0.8
same,fold induction at 50 µM,E. coli; [9],18.1
CC(=O)Oc1cc(C(C)C)c(OCCN(C)C)cc1C.Cl [Moxisylyte hydrochoride],"AK-based Prestwick Library Screening Results, E. faecium (increase in extracellular AK activity)",E. faecium; [17],0.9
same,"AK-based Prestwick Library Screening Results, S. aureus (increase in extracellular AK activity)",[1]; [17],1.1
same,"AK-based Prestwick Library Screening Results, K. pneumoniae (increase in extracellular AK activity)",K. pneumoniae; [17],1.0
same,"AK-based Prestwick Library Screening Results, A. baumannii (increase in extracellular AK activity)",[2]; [17],1.1
same,"AK-based Prestwick Library Screening Results, P. aeruginosa (increase in extracellular AK activity)",P. aeruginosa; [17],1.1
same,"AK-based Prestwick Library Screening Results, E. cloacae (increase in extracellular AK activity)",E. cloacae; [17],1.6
same,"AK-based Prestwick Library Screening Results, E. coli (increase in extracellular AK activity)",E. coli; [17],1.2
COc1nc(C)nc(Cl)c1N=C1NCCN1 [Moxonidine],fold induction at 50 µM,"E. faecium; planktonic E. faecium, positive cutoff 3-fold increase, read-out: AK-based Prestwick library screening result, E. faecium (fold increase in extracellular AK activity)",0.9
same,fold induction at 50 µM,"[1]; planktonic S. aureus, positive cutoff 3-fold increase, read-out: AK-based Prestwick library screening result, S. aureus (fold increase in extracellular AK activity)",1
same,fold induction at 50 µM,"K. pneumoniae; planktonic K. pneumoniae, positive cutoff 3-fold increase, read-out: AK-based Prestwick library screening result, K. pneumoniae (fold increase in extracellular AK activity)",1.1
same,fold induction at 50 µM,"[2]; planktonic A. baumannii, positive cutoff 3-fold increase, read-out: AK-based Prestwick library screening result, A. baumannii (fold increase in extracellular AK activity)",1.1
same,fold induction at 50 µM,"P. aeruginosa; planktonic P. aeruginosa, positive cutoff 3-fold increase, read-out: AK-based Prestwick library screening result, P. aeruginosa (fold increase in extracellular AK activity)",1.1
same,fold induction at 50 µM,"E. cloacae; planktonic E. cloacae, positive cutoff 3-fold increase, read-out: AK-based Prestwick library screening result, E. cloacae (fold increase in extracellular AK activity)",1.8
same,fold induction at 50 µM,"E. coli; planktonic E. coli, positive cutoff 3-fold increase, read-out: AK-based Prestwick library screening result, E. coli (fold increase in extracellular AK activity)",1.1
COc1c(C)c2c(c(O)c1C/C=C(\C)CCC(=O)O)C(=O)OC2 [Mycophenolic acid],fold induction at 50 µM,"E. faecium; planktonic, cutoff for positive 3-fold increase, read-out: AK-based Prestwick Library Screening Results, E. faecium (fold increase in extracellular AK activity)",1.1
same,fold induction at 50 µM,"[1]; planktonic, cutoff for positive 3-fold increase, read-out: AK-based Prestwick Library Screening Results, S. aureus (fold increase in extracellular AK activity)",1.1
same,fold induction at 50 µM,"K. pneumoniae; planktonic, cutoff for positive 3-fold increase, read-out: AK-based Prestwick Library Screening Results, K. pneumoniae (fold increase in extracellular AK activity)",1.5
same,fold induction at 50 µM,"[2]; planktonic, cutoff for positive 3-fold increase, read-out: AK-based Prestwick Library Screening Results, A. baumannii (fold increase in extracellular AK activity)",1.2
same,fold induction at 50 µM,"P. aeruginosa; planktonic, cutoff for positive 3-fold increase, read-out: AK-based Prestwick Library Screening Results, P. aeruginosa (fold increase in extracellular AK activity)",1.2
same,fold induction at 50 µM,"E. cloacae; planktonic, cutoff for positive 3-fold increase, read-out: AK-based Prestwick Library Screening Results, E. cloacae (fold increase in extracellular AK activity)",1.3
same,fold induction at 50 µM,"E. coli; planktonic, cutoff for positive 3-fold increase, read-out: AK-based Prestwick Library Screening Results, E. coli (fold increase in extracellular AK activity)",1.2
c1cncc(C2=NCCC2)c1 [Myosmine],fold induction at 50 µM,E. faecium; [10],0.9
same,fold induction at 50 µM,[1]; [11],0.4
same,fold induction at 50 µM,K. pneumoniae; [12],0.5
same,fold induction at 50 µM,[2]; [13],0.5
same,fold induction at 50 µM,P. aeruginosa; [14],0.4
same,fold induction at 50 µM,E. cloacae; [15],0.4
same,fold induction at 50 µM,E. coli; [16],0.5
